Experimental data published in US20250000873A1, “INHALED ILOPROST FOR RESCUE TREATMENT AND TREATMENT AS NEEDED IN PULMONARY HYPERTENSION” (JUSTUS-LIEBIG-UNIVERSITAET GIESSEN, priority 2021, published 2025).
“Also recorded” adds a separate entry of the source.

Key:
[1] = test system: hemodynamic parameters of pulmonary circulation; details: conventional nebulizers, administered over 10 minutes; cited from earlier work
[2] = test system: patients with pulmonary arterial hypertension; assay: Clinical pilot study of iloprost PRN, hemodynamics by intracardiac catheter and tolerability; format: in vivo, human
Experimental: A clinical pilot study to evaluate the feasibility of iloprost PRN was conducted with 4 patients. Eligible were male and female patients with pulmonary arterial hypertension in the age from 18 to 70 years having a mean pulmonary arterial blood pressure (PAP) higher than 25 mm Hg, a pulmonary vascular resistance (PVR) higher than 240 dyn*s*cm−5, a central venous pressure (CVP) higher than 3 mm Hg, and a pulmonary capillary wedge pressure (PCWP) lower than 12 mm Hg. Patients were therapy-naïve, or were receiving PH-specific medication (endothelin receptor antagonists, phosphodiesterase type 5 inhibitors, prostacyclin analogues) alone or in combination. Patients were monitored by ECG, pulse oxymetry, and non-invasive blood pressure measurement. An intracardiac catheter was introduced into the distal pulmonary artery to measure PAP, CVP, PCWP, and cardiac output. Also measured were the heart rate, systemic arterial pressure (SAP), systemic vascular resistance (SVR), central arterial and venous blood gases. After the initial determination of all parameters the reactivity of the pulmonary vasculature to oxygen (2 to 4 L/min) and nitric oxide (20 ppm) was tested. Subsequently, patients inhaled a single dose of 2.5 μg of nebulized iloprost in two breaths, using a prototype of a soft mist inhaler filled with iloprost in a concentration of 50 μg/ml. Hemodynamic parameters and clinical condition of the patients were assessed before and 1, 5, 15 and 30 minutes after inhalation. In the absence of adverse effects, a second inhalation maneuver with 4 breaths corresponding to a dose 5 μg iloprost was performed, again followed by an observation period of at least 30 minutes.

## CC#CCC(C)[C@H](O)/C=C/[C@@H]1[C@H]2C/C(=C/CCCC(=O)O)C[C@H]2C[C@H]1O (stereo partly drawn) [iloprost, 5-{(E)-(1S,5S,6R,7R)-7-hydroxy-6[(E)-(3S,4RS)-3-hydroxy-4-methyl-1-octen-6-inyl]-bicyclo[3.3.0]octan-3-ylidene}pentanoic acid]
[1]
  Time of maximum therapeutic effects on hemodynamic parameters of pulmonary circulation after end of inhalation: approximately 5 minutes
[2]; inhaled 2.5 μg (2 breaths) then 5 μg (4 breaths), prototype soft mist inhaler, iloprost 50 μg/ml, 4 patients
  Tolerability of the treatment: all patients tolerated the treatment well
[2]; inhaled 2.5 μg or 5 μg, soft mist inhaler prototype, n=4
  Systemic side effects (SAP and SVR changes): without significant systemic side effects
[2]; rapid inhalation of 2.5 μg or 5 μg (2 or 4 puffs à 1.25 μg), soft mist inhaler prototype, n=4
  Onset of therapeutic pulmonary vascular effects (PAP and PVR changes): already seen within only one minute after rapid iloprost inhalation; also recorded: already registered one minute after finishing the inhalation maneuver
